# Measured values as given in the supplement of paper PMC5579334.
# ± gives the standard deviation of the averaged measurements.
# Columns and labels:
# HS-PSS [1] = test: % inhibition of CellTiter-Glo viability at highest tested concentration (72 h), relative to DMSO and benzethonium chloride controls; higher = more inhibition
# How it was run: (§1)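 Viability was scored by CellTiter-Glo ATP luminescence, scaled from vehicle to positive-control wells, with duplicates averaged where present. The cells, MPNST lines and primary human Schwann cells at 750–1000 per well, sat 72 h at 37 °C, 5% CO2, in 384-well plates preprinted with each compound at five concentrations in 10-fold steps. Four-parameter logistic fits were run on the data. These fits give drug sensitivity score and relative IC50 censored at the top concentration, and percent inhibition is reported at the top concentration.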
# S1507-2 [2] = test: as above
# How it was run: as §1
# [3] = tested on: HSC1 (primary human Schwann cells); test: as above
# How it was run: as §1
# YST-1 [4] = test: as above
# How it was run: as §1
# S462 [5] = test: as above
# How it was run: as §1
# ST8814 [6] = test: as above
# How it was run: as §1
# [7] = tested on: HSC2 (primary human Schwann cells); test: as above
# How it was run: as §1
# STS26T [8] = test: as above
# How it was run: as §1
# HS-Sch-2 [9] = test: as above
# How it was run: as §1
# HS-PSS [10] = test: drug sensitivity score (DSS, CellTiter-Glo viability, 72 h) (DSS (dimensionless)); higher = more sensitive; extreme values may be limits of the assay
# How it was run: as §1
# S1507-2 [11] = test: as above
# How it was run: as §1
# [12] = tested on: HSC1 (primary human Schwann cells); test: as above
# How it was run: as §1
# YST-1 [13] = test: as above
# How it was run: as §1
# S462 [14] = test: as above
# How it was run: as §1
# ST8814 [15] = test: as above
# How it was run: as §1
# [16] = tested on: HSC2 (primary human Schwann cells); test: as above
# How it was run: as §1
# STS26T [17] = test: as above
# How it was run: as §1
# HS-Sch-2 [18] = test: as above
# How it was run: as §1
# HS-PSS [19] = test: drug sensitivity score (DSS, CellTox-Green cytotoxicity, 72 h) (DSS (dimensionless)); higher = more cytotoxic; extreme values may be limits of the assay
# How it was run: (§2)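 MPNST cell lines and primary human Schwann cells were incubated 72 h at 37 °C in 384-well plates holding five 10-fold compound dilutions. CellTox-Green was added before seeding at a final 1:1000 dilution and reported fluorescence from DNA released by disrupted cells. Signals were scaled to vehicle and positive-control wells, and cultures failing plate quality control were dropped. Drug sensitivity score and relative IC50 come from four-parameter logistic fits, with IC50 censored at the top concentration.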
# S1507-2 [20] = test: as above
# How it was run: as §2
# [21] = tested on: HSC1 (primary human Schwann cells); test: as above
# How it was run: as §2
# ST8814 [22] = test: as above
# How it was run: as §2
# [23] = tested on: HSC2 (primary human Schwann cells); test: as above
# How it was run: as §2
# STS26T [24] = test: as above
# How it was run: as §2
Structure (SMILES),% inhibition (HS-PSS [1]) [%],% inhibition (S1507-2 [2]) [%],% inhibition [3] [%],% inhibition (YST-1 [4]) [%],% inhibition (S462 [5]) [%],% inhibition (ST8814 [6]) [%],% inhibition [7] [%],% inhibition (STS26T [8]) [%],% inhibition (HS-Sch-2 [9]) [%],drug sensitivity score (HS-PSS [10]),drug sensitivity score (S1507-2 [11]),drug sensitivity score [12],drug sensitivity score (YST-1 [13]),drug sensitivity score (S462 [14]),drug sensitivity score (ST8814 [15]),drug sensitivity score [16],drug sensitivity score (STS26T [17]),drug sensitivity score (HS-Sch-2 [18]),drug sensitivity score (HS-PSS [19]),drug sensitivity score (S1507-2 [20]),drug sensitivity score [21],drug sensitivity score (ST8814 [22]),drug sensitivity score [23],drug sensitivity score (STS26T [24])
CCOc1cc2ncc(C#N)c(Nc3ccc(OCc4ccccn4)c(Cl)c3)c2cc1NC(=O)/C=C/CN(C)C [Neratinib] (max concentration tested 1000 nM),65.7,49.1 ± 15,70.6,46.7,64.8 ± 7.9,40.5,75.8,38.6,65.3,6.05,4 ± 1.6,4.77,2.34,5.12 ± 0.93,3.74,5.85,3.09,5.51,0,0,0,0,0,0
CN1CCN(CCOc2cc(OC3CCOCC3)c3c(Nc4c(Cl)ccc5c4OCO5)ncnc3c2)CC1 [Saracatinib] (max concentration tested 10000 nM),67.5,74.8 ± 2.1,50.3,14.6,36.2 ± 0.27,55.2,37.1,50.2,51.7,6.08,7.04 ± 1.5,7.06,0.09,3.91 ± 0.7,5.63,3.21,5.09,3.07,1.13,9.49 ± 1.6,0,5.67,6.91,1.58
O=C(Nc1c[nH]nc1-c1nc2ccc(CN3CCOCC3)cc2[nH]1)NC1CC1 [AT9283] (max concentration tested 1000 nM),40.9,95.6 ± 4.4,83.1,67.4,84.48 ± 0.23,92.4,83,66.9,93.4,3.34,10.9 ± 1.9,10.7,6.27,8.755 ± 0.034,13,10.5,5.9,4.99,0,8.28 ± 1.4,4.98,15.5,5.2,8.27
CN(C)/N=N/c1[nH]cnc1C(N)=O [Dacarbazine] (max concentration tested 10000 nM),7.14,-5.83 ± 6.6,9.74,-4.08,8.66 ± 8.8,3.31,-1.82,23.5,7.05,0,0,0,0,0.065 ± 0.092,0,0,1.17,0,0,0.828 ± 1.2,0,0,0,0
Cn1cnc(-c2cc3nccc(Oc4ccc(NC(=S)NC(=O)Cc5ccccc5)cc4F)c3s2)c1 [MGCD-265] (max concentration tested 10000 nM),23.4,40 ± 2.4,11,16.1,40.6 ± 5.4,29.8,21.3,11.4,29.8,2.02,4.92 ± 1.6,0.016,0.19,2.93 ± 0.53,3.47,0.731,0,2.2,0,3.76 ± 5.3,0,0.0251,0.0906,0
COc1cccc2cc(-c3nc([C@H]4CC[C@H](C(=O)O)CC4)n4ncnc(N)c34)[nH]c12 [OSI-027] (max concentration tested 10000 nM),26.6,64.4 ± 4.5,84.8,78,58.2 ± 2.5,53,80.9,53.1,49.1,0.84,8.32 ± 1,10.7,9.46,7.41 ± 0.52,5.6,8.56,4.45,2.33,0,2.04 ± 1.4,0,0,0,0
CS(=O)(=O)c1ccc(C2=C(c3ccccc3)C(=O)OC2)cc1 [Rofecoxib] (max concentration tested 10000 nM),-0.36,3.17 ± 6.5,2.15,1.11,-1.92 ± 0.69,3.44,-0.797,-0.415,-5.42,0,0,0,0,0,0,0,0,0,0,0,0,0,0,0
